Results reported in publication PMC9608075 (Pharmaceutics, 2022).

Tests used:
human recombinant GCPII = human recombinant GCPII (Homo sapiens, UniProt Q04609); assay: GCPII activity assay (radioactivity-based, NAA-[3H]-G); format: biochemical; conditions: for IC50: human recombinant GCPII
Experimental: Inhibition potencies against GCPII (IC50 values) were determined using previously described methods with minor modifications. Briefly, reactions were carried out in the presence of NAA-[^3H]-G and human recombinant GCPII enzyme in Tris-HCl and CoCl2 at 37 °C for 20 min. Reactions were stopped with ice-cold sodium phosphate buffer containing 1 mM EDTA. Aliquots were then transferred to 96-well spin columns containing AG1X8 ion-exchange resin and centrifuged. NAA-[^3H]-G was bound to the resin and [^3H]-G eluted in the flow-through. Columns were washed with formate to ensure complete elution of [^3H]-G. The flow-through and the washes were collected, and aliquots were transferred and dried to completion in a solid scintillator-coated 96-well plate. The radioactivity corresponding to [^3H]-G was determined with a scintillation counter. Subsequently, IC50 curves were generated from CPM results.
The inhibitory potencies of the catechols were determined using a modified radioactivity-based assay involving human recombinant GCPII enzyme as previously reported. Based on literature reports of catecholic moieties binding to zinc metalloproteases, we tested the potency of L-DOPA (1) against GCPII activity and discovered that it is a submicromolar inhibitor. […] This prompted us to evaluate analogs of L-DOPA (Table 1) to determine the essential structural features responsible for its GCPII inhibitory activity. […] Subsequently, we tested L-DOPA analogs retaining the catechol moiety (compounds 5–10). […] Taken together, these structure–activity relationship (SAR) studies highlight the critical role played by the catechol and carboxylate groups of L-DOPA in GPCII inhibition as well as the insignificant contribution of the alpha amino group.

[1] = Metabolic stability in mouse plasma; format: in vitro ADME; conditions: 37 °C, 60 min
Experimental: (§1) Briefly, brain homogenates were prepared by adding 9X of 0.1 M potassium phosphate buffer to weighed tissue and homogenization using a probe sonicator. Plasma and crude brain homogenate (1 mL each) were spiked with the analyte to give a final concentration of 10 µM and then incubated at 37 °C for 1 h. At predetermined time points (0, 30, and 60 min), an aliquot from each matrix was quenched with 3X volume of acetonitrile containing the internal standard (IS; losartan: 0.5 μM) and vortex-mixed for 30 s. The final mixtures were centrifuged at 10,000× g for 10 min at 4 °C and supernatants were used for LC-MS analyses.
(§2) The samples were analyzed using a Dionex Ultimate 3000 ultra-high-performance LC system coupled with a Q Exactive Focus orbitrap mass spectrometer (Thermo Fisher Scientific Inc., Waltham MA, USA) operated with a heated electrospray ionization (HESI) ion source. […] The mass spectrometer was operated in switching ionization mode to collect both positive and negative molecular ions while being controlled by Xcalibur software 4.0.27.13 (Thermo Scientific). Analytes were quantified and the disappearance of the respective catechols was monitored in the full-scan mode (from m/z 50 to 1600) by comparing samples at the different time-points.

in vitro = in vitro ADME; conditions: mouse, brain homogenate
Experimental: as §1, §2

[2] = Metabolite identification (MET-ID) in spiked brain homogenate; format: in vitro ADME, mouse; conditions: 30 min post-spike
[3] = Initial two time-point pharmacokinetic study in mice; format: in vivo, mouse; conditions: 50 mg/kg PO; for brain levels: at both time points (30 and 60 min); for concentration at 30 min: 30 min post dose
Experimental: For in vivo PK studies, male CD-1 mice (Harlan Laboratories, Indianapolis, IN, USA) weighing 25-30 g were used. The mice were maintained on a 12 h light-dark cycle with ad libitum access to food and water. […] Brains were dissected and immediately flash frozen (-80 °C). […] Caffeic acid was analyzed underivatized. […] Plasma and brain tissue samples were processed by matching dilutions of the calibration standards. […] Then, 2 μL of the sample was analyzed using LC/MS/MS system. […] Plasma and brain tissue samples were processed by matching the dilutions of calibration standards of the respective tissues. […] The solutions were vortexed for 15 s and then allowed to sit at room temperature for 45 min. These mixtures were vortexed again for 10 s and centrifuged at 10,000× g for 10 min to collect the supernatant. Then, 2 μL of the sample was injected into the LC/MS/MS system for analysis. Chromatographic analysis was performed using a Thermo Scientific Vanquish UPLC system consisting of an analytical pump and an autosampler coupled with a […] spectrometer. […] The mobile phase was delivered as a gradient at a flow rate of 0.400 mL/min. […] The analyte was monitored using a ThermoScientific […] triple-quadrupole mass-spectrometric detector equipped with an electrospray interface, and operated in negative ion mode. The instrument was controlled by Thermo Scientific Xcalibur (version 4.2.47) software.

in vivo = conditions: male, CD-1, mouse
Experimental: All of the formulations were freshly prepared prior to the dosing. […] Brain and plasma collection were carried out as described above. […] Plasma and brain tissue samples were processed by matching the dilutions of calibration standards of the respective tissues. […] The solutions were vortexed for 15 s and then allowed to sit at room temperature for 45 min. These mixtures were vortexed again for 10 s and centrifuged at 10,000× g for 10 min to collect the supernatant. Then, 2 μL of the sample was injected into the LC/MS/MS system for analysis. Chromatographic analysis was performed using a Thermo Scientific Vanquish UPLC system consisting of an analytical pump and an autosampler coupled with a […] spectrometer. […] The mobile phase was delivered as a gradient at a flow rate of 0.400 mL/min. […] The analyte was monitored using a ThermoScientific […] triple-quadrupole mass-spectrometric detector equipped with an electrospray interface, and operated in negative ion mode. The instrument was controlled by Thermo Scientific Xcalibur (version 4.2.47) software.

GCPII = biological target: T1, GCPII (Mus musculus, UniProt O35409); assay: D-DOPA target engagement: ex vivo GCPII activity in mouse brain; conditions: for brain GCPII activity, effect in words: 30 min
T1 construct: from tissue
T1 sequence (O35409 whole entry): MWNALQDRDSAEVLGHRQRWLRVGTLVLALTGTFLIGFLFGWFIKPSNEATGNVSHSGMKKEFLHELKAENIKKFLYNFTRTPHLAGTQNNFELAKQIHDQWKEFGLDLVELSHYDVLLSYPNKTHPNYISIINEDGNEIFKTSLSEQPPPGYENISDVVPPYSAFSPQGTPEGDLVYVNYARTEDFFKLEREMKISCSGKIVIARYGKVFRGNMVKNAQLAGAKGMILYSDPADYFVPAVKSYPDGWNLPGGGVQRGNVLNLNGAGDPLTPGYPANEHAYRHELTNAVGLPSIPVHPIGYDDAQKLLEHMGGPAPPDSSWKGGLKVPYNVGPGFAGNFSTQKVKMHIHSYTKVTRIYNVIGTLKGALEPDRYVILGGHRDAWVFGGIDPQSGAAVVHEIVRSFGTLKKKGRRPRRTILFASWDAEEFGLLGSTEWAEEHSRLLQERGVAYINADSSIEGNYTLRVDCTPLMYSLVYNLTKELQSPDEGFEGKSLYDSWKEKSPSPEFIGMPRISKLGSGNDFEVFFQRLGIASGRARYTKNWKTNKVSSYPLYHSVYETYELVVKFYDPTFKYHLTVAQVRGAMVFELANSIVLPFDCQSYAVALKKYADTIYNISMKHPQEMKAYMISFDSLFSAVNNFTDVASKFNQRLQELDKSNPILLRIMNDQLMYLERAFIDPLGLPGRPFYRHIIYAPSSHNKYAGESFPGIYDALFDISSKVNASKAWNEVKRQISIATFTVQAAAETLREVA

[4] = male, CD-1, mouse, plasma, read-out: plasma levels

Chain of human recombinant GCPII (Q04609 whole entry): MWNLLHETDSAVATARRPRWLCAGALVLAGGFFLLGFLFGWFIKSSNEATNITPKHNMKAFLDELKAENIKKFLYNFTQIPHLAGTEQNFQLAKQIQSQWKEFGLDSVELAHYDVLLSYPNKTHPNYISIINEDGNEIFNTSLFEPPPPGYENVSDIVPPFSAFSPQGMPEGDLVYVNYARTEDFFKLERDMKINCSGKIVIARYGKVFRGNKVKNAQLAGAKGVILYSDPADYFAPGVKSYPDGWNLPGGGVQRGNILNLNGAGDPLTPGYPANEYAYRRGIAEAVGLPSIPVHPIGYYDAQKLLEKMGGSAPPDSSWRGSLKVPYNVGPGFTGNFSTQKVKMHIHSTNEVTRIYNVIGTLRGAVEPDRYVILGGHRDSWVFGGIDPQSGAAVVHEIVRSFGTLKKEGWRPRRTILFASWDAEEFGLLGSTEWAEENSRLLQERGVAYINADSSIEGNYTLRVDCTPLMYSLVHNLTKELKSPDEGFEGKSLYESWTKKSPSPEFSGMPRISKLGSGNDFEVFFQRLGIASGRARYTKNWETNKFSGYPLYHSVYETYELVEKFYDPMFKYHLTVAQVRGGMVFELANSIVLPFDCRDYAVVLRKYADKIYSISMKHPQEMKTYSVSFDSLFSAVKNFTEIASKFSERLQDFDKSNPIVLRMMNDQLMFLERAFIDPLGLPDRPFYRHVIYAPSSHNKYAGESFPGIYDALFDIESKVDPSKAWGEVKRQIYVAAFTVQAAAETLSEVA

For N[C@@H](Cc1ccc(O)c(O)c1)C(=O)O [Compound 1, L-DOPA, reference compound], the IC50 (human recombinant GCPII) was 0.6 µM, the remaining at 1 h, 10 µM [1] was 64% and the remaining at 0.5 h, 10 µM (in vitro) was 0%. The “Dopamine release in spiked brain homogenate” value [2] was “observed”, the brain levels [3] was < 0.10 nmol/g and the concentration at 30 min [3, 4] was 3.74 µM.
N[C@@H](Cc1ccc(O)cc1)C(=O)O [Compound 2, Tyr] gave an IC50 (human recombinant GCPII) of 100 µM.
In the case of NC(Cc1ccc(=O)n(O)c1)C(=O)O (stereo not shown) [Compound 4], the IC50 (human recombinant GCPII) is reported as > 100 µM.
In the case of C[C@](N)(Cc1ccc(O)c(O)c1)C(=O)O [Compound 5], the IC50 (human recombinant GCPII) is reported as > 100 µM.
In the case of CC(=O)N[C@@H](Cc1ccc(O)c(O)c1)C(=O)O [Compound 6], the IC50 (human recombinant GCPII) is reported as 20 µM.
For NCCc1ccc(O)c(O)c1 [Compound 7, Dopamine, reference compound], the IC50 (human recombinant GCPII) was > 100 µM.
With O=C(O)CCc1ccc(O)c(O)c1 [Compound 8] the IC50 (human recombinant GCPII) was 4 µM and the “decrease in inhibitory potency” value (human recombinant GCPII; versus L-DOPA) was 6.7 fold.
In the case of O=C(O)/C=C/c1ccc(O)c(O)c1 [Compound 9, Caffeic Acid], the IC50 (human recombinant GCPII) is reported as 0.3 µM, the remaining at 1 h, 10 µM [1] is reported as 56% and the remaining at 1 h, 10 µM (in vitro) is reported as 98%. For the same molecule, the “plasma levels following oral administration” value ([3]; 30 and 60 min) was 6 to 7 µM, the brain levels [3] was < 0.01 nmol/g and the concentration at 30 min [3, 4] was 6.47 µM.
For N[C@H](Cc1ccc(O)c(O)c1)C(=O)O [Compound 10, D-DOPA], the IC50 (human recombinant GCPII) was 0.2 µM, the remaining at 1 h, 10 µM [1] was 100% and the remaining at 1 h, 10 µM (in vitro) was 82%. For the same molecule, the “Dopamine release in spiked brain homogenate” value [2] was “not observed”, the brain levels [3] was ~ 1 nmol/g and the concentration at 30 min [3, 4] was 84.3 µM. For the same molecule, the concentration at 1 h ([3]; male, CD-1, mouse, plasma, one hour post dose, read-out: plasma levels) was 21.5 µM, the bioavailability (in vivo) was 47.7% and the AUC(0-t) (in vivo; iv, 10 mg/kg) was 30.5 µM·h. For the same molecule, the clearance (in vivo; iv, 10 mg/kg, Cl) was 28 mL/min/kg, the Cmax (in vivo; iv, 10 mg/kg, Cmax) was 61.1 µM and the Tmax (in vivo; iv, 10 mg/kg, Tmax) was 5 min. For the same molecule, the clearance (in vivo; iv, 10 mg/kg, clearance (Cl)) was 28 mL/min/kg, the half-life (in vivo; iv, 10 mg/kg, half-life (t1/2)) was 21 min and the AUC(0-t) (in vivo; po, 50 mg/kg) was 72.7 µM·h. The AUCbrain (in vivo; po, 50 mg/kg) was 2.42 nmol/g, the Cmax (in vivo; po, 50 mg/kg) was 1.74 µM and the Tmax (in vivo; po, 50 mg/kg) was 15 min. The Kp (in vivo; po, 50 mg/kg, AUCBrain/Plasma ratio (brain penetration index)) was 0.03, the Cmax (in vivo; po, 50 mg/kg, Cmax) was 99 µM and the Tmax (in vivo; po, 50 mg/kg, Tmax) was 30 min. The “brain GCPII activity, effect in words” value (GCPII; PO 50 mg/kg + sodium benzoate IP 400 mg/kg, p < 0.001 vs untreated) was “significant inhibition”, the “brain GCPII activity, effect in words” value (GCPII; monotherapy PO 50 mg/kg, p < 0.01 vs untreated) was “significant inhibition” and the inhibition at 50 mg/kg (GCPII; mouse, po) was ~25%.
